From US12220393B2, “Compositions and methods for the treatment of zika viral diseases” (The ProImmune Company LLC, priority 2017, dated 2025)

How the values were obtained:
[1] = tested on: Zika virus; experiment: Quantification of Zika virus titers in infected JEG-3 cells; assay type: cell-based; conditions: BSO 200 μM
Experimental: (§1) FIGS. 6A-6D show effects of inhibition of glutathione biosynthesis on Zika virus replication in JEG-3 cells. […] All experiments were performed in triplicates and the data shown are representative data from multiple independent experiments. Standard error bars were calculated using Microsoft Excel and significance assessments were performed using GRAPHPAD PRISM. * indicates a p-value <0.05 and >0.01; ** indicates a p-value <0.01 and >0.001; and *** indicates a p-value <0.001.
FFAAP treatment of cells. […] Cells infected with Zika virus were treated with the above concentration 1.5 hours post adsorption for quantification of virus titers. For plaque enumeration assay cells were treated with FFAAP at the time of adsorption and the treatment was continued for 3 days in semi-solid medium. For these assays the final concentrations in the cell culture medium of the infected and uninfected cells were 0, 2.5, 5.0, and 10 mM FFAAP from solubilized stock solution prepared for FFAAP. Inhibitory concentration (IC50) was used as per definitions provided by GRAPHPAD Software) to evaluate dose-response curves.
Approximately 95% sub-confluent Vero cells or JEG-3 cells were infected Zika in a 48-well plate. After 1.5 hours post-adsorption (HPA), virus inoculum was removed and media with or without FFAAP was added to the respective wells. […]

[2] = tested on: total intracellular glutathione; experiment: Total intracellular glutathione in Zika virus infected Vero cells; assay type: cell-based, African green monkey (Chlorocebus sp.); conditions: by 48 hours post BSO-treatment
Experimental: (§2) FIGS. 4A and 4B show effect of FFAAP on total intracellular GSH and Zika virus replication in Zika virus infected Vero cells (ZIKV). Vero cells, grown to approximately 90-95% confluence (mid-log phase), were treated with and grown in the presence of increasing concentrations of FFAAP for 3 days. At each time point, medium was discarded and cells were harvested to measure intracellular concentrations of total GSH. […] All experiments shown were performed in triplicates and the data shown are representative data from multiple independent experiments. Standard error bars were calculated using Microsoft Excel and significance assessments were performed using GRAPHPAD PRISM. * indicates a p-value <0.05 and >0.01; ** indicates a p-value <0.01 and >0.001; and *** indicates a p-value <0.001.
(§3) FIG. 5A-5D show effects of inhibition of glutathione biosynthesis on Zika virus replication in Vero cells. […] Standard error bars were calculated using Microsoft Excel and significance assessments were performed using GRAPHPAD PRISM. * indicates a p-value <0.05 and >0.01; ** indicates a p-value <0.01 and >0.001; and *** indicates a p-value <0.001.
(§4) Glutathione Precursors and Glutathione Assays. […] Effective blockade was assessed by measurements of intracellular reduced and oxidized glutathione in the presence of inhibitor.

[3] = tested on: intracellular glutathione; experiment: Intracellular glutathione in JEG-3 cells; assay type: cell-based, human
Experimental: as §1
FIGS. 7A-F show total intracellular GSH concentrations in various cells that were treated with BSO, FFAAP, and a combination of BSO and FFAAP at day 0 and day 2. FIGS. 7A-7C show intracellular GSH concentration in African green monkey (Chlorocebus sp.) Vero cells. […]
Glutathione Precursors and Glutathione Assays. […] Intracellular glutathione levels (GSSG/GSH) were measured to quantify the levels of newly biosynthesized intracellular glutathione with molar quantities calculated using standard curves prepared with reduced and oxidized glutathione (Enzo Life Sciences, Farmingdale, NY), Standard error of the mean (SEM) was calculated using values from triplicate samples and coefficient of variance was calculated within each sample for each specific treatment group. […] Effective blockade was assessed by measurements of intracellular reduced and oxidized glutathione in the presence of inhibitor.

[4] = tested on: total intracellular glutathione (GSH+GSSG); experiment: Total intracellular glutathione in uninfected Vero cells; assay type: cell-based, African green monkey (Chlorocebus sp.); conditions: BSO treatment, initial studies
Experimental: African green monkey (Chlorocebus sp.) Vero cells, grown to approximately 90-95% confluence (mid-log phase), were treated with and grown in the presence of increasing concentrations of FFAAP for three days. At each time point, medium was discarded and cells were harvested to measure intracellular concentrations of total GSH. All experiments shown were done in triplicate and the data shown are representative data from multiple independent experiments performed. Standard error bars were calculated using MICROSOFT EXCEL and significance assessments were performed using GRAPHPAD PRISM. * indicates a p-value <0.05 and >0.01; ** indicates a p-value <0.01 and >0.001; and *** indicates a p-value <0.001.
Uninfected Vero cells were treated with 0, 2, 4, 6 mM concentrations of free-form amino acid precursors (FFAAP) for 72 hours. Vero cells infected with Zika virus were treated with the above concentration immediately for quantification of virus titers. […]
as §4
To determine the levels of intracellular glutathione in uninfected cells, FFAAP-treated and untreated cells, we quantified GSH/GSSG levels in each cell line over three days. Growth and viability of the cells were also assessed. […]

[5] = tested on: Zika virus; experiment: Quantification of Zika virus titers in infected Vero cells; assay type: cell-based; conditions: BSO 200 μM, MOI 0.1
Experimental: as §2, §3
FFAAP treatment of cells. […] Cells infected with Zika virus were treated with the above concentration 1.5 hours post adsorption for quantification of virus titers. […]

What does the source list for `CCCCS(=N)(=O)CC[C@H](N)C(=O)O` (stereo partly drawn) [BSO, buthionine-(S,R)-sulfoximine]?
Zika virus replication on blockage of glutathione biosynthesis [1]: inhibition of Zika virus replication; intracellular levels of glutathione [2]: undetectable; intracellular glutathione levels ([3]; JEG-3 cells, BSO treatment, initial studies): undetectable levels; intracellular GSH synthesis ([3]; Zika virus infected JEG-3 cells): blocked intracellular GSH synthesis; intracellular glutathione levels [4]: undetectable levels; Zika virus replication in Vero cells treated with BSO [5]: Zika virus replicates even in Vero cells treated with BSO
